Laboratory results from patent publication US20220132852A1, “PESTICIDALLY ACTIVE HETEROCYCLIC DERIVATIVES WITH SULFUR CONTAINING SUBSTITUENTS” (SYNGENTA CROP PROTECTION AG, priority 2019, published 2022).

Tests used:
Format in all cases: in vivo
[1] = system: Diabrotica balteata (Corn Root Worm); assay: Example B1: Activity against Diabrotica balteata (corn root worm), sprayed maize sprouts; details: 96 h, application rate 200 ppm, L2 larvae on sprayed maize sprouts, 4 days after infestation, read-out: effect in at least one of the two categories (mortality or growth inhibition)
Protocol: Example B1: Activity Against Diabrotica balteata (Corn Root Worm)
Maize sprouts placed onto an agar layer in 24-well microtiter plates were treated with aqueous test solutions prepared from 10′000 ppm DMSO stock solutions by spraying. After drying, the plates were infested with L2 larvae (6 to 10 per well). The samples were assessed for mortality and growth inhibition in comparison to untreated samples 4 days after infestation.

[2] = system: Euschistus heros (Neotropical Brown Stink Bug); assay: Example B2: Activity against Euschistus heros (neotropical brown stink bug), sprayed soybean leaves; details: 120 h, application rate 200 ppm, N2 nymphs on sprayed soybean leaves, 5 days after infestation, read-out: effect in at least one of the two categories (mortality or growth inhibition)
Protocol: Example B2: Activity Against Euschistus heros (Neotropical Brown Stink Bug)
Soybean leaves on agar in 24-well microtiter plates were sprayed with aqueous test solutions prepared from 10′000 ppm DMSO stock solutions. After drying the leaves were infested with N2 nymphs. The samples were assessed for mortality and growth inhibition in comparison to untreated samples 5 days after infestation.

[3] = system: Plutella xylostella (Diamond Back Moth); assay: Example B3: Activity against Plutella xylostella (diamond back moth), artificial diet; details: 192 h, application rate 200 ppm, eggs on artificial diet, 8 days after infestation, read-out: effect in at least one of the two categories (mortality or growth inhibition)
Protocol: Example B3: Activity Against Plutella xylostella (Diamond Back Moth)
24-well microtiter plates with artificial diet were treated with aqueous test solutions prepared from 10′000 ppm DMSO stock solutions by pipetting. After drying, Plutella eggs were pipetted through a plastic stencil onto a gel blotting paper and the plate was closed with it. The samples were assessed for mortality and growth inhibition in comparison to untreated samples 8 days after infestation. The following compounds gave an effect of at least 80% in at least one of the two categories (mortality or growth inhibition) at an application rate of 200 ppm: P2, P4, P5, P6, P8, P9, P10, P11, P12, P14, P15, P16, P17, P18, P19, P20, P21, P22, P23, P24, P25, P26, P27, P28, P29, P30, P31, P32, P33, P34, P35, P36, P38, P39, P40, P42, P45, P46, P47, P49, P50, P51, P52.

[4] = system: Myzus persicae (Green Peach Aphid); assay: whole plant or invertebrate; details: foliar, 144 h, application rate 200 ppm, sprayed sunflower leaf discs, mixed ages, 6 days after infestation
Protocol: Example B4: Activity Against Myzus persicae (Green Peach Aphid) Feeding/Contact Activity
Sunflower leaf discs were placed onto agar in a 24-well microtiter plate and sprayed with aqueous test solutions prepared from 10′000 ppm DMSO stock solutions. After drying, the leaf discs were infested with an aphid population of mixed ages. The samples were assessed for mortality 6 days after infestation.

[5] = system: Spodoptera littoralis (Egyptian Cotton Leaf Worm); assay: Example B6: Activity against Spodoptera littoralis (Egyptian cotton leaf worm); details: foliar, 72 h, application rate 200 ppm, L1 larvae on sprayed cotton leaf discs, 3 days after infestation, read-out: control (mortality, anti-feeding effect or growth inhibition)
Protocol: Example B6: Activity Against Spodoptera littoralis (Egyptian Cotton Leaf Worm)
Cotton leaf discs were placed onto agar in 24-well microtiter plates and sprayed with aqueous test solutions prepared from 10′000 ppm DMSO stock solutions. After drying the leaf discs were infested with five L1 larvae. The samples were assessed for mortality, anti-feeding effect, and growth inhibition in comparison to untreated samples 3 days after infestation. Control of Spodoptera littoralis by a test sample is given when at least one of the categories mortality, anti-feedant effect, and growth inhibition is higher than the untreated sample.

CCS(=O)(=O)c1ccc(N(C)C(=O)C2CC2)nc1-c1cc2cnn(CC(F)(F)C(F)(F)F)c2cn1 [Compound P15, N-[5-ethylsulfonyl-6-[1-(2,2,3,3,3-pentafluoropropyl)pyrazolo[3,4-c]pyridin-5-yl]-2-pyridyl]-N-methyl-cyclopropane-carboxamide]
≥ 80%: percent effect (mortality or growth inhibition) at 200 ppm [1] | percent effect (mortality or growth inhibition) at 200 ppm [2] | percent effect (mortality or growth inhibition) at 200 ppm [3] | mortality at 200 ppm [4] | percent control (mortality, anti-feedant effect or growth inhibition) at 200 ppm [5]

CCS(=O)(=O)c1cc(-n2ccc(Cl)n2)cnc1-c1cc2cnn(CC(F)(F)C(F)(F)F)c2cn1 [Compound P46, 5-[5-(3-chloropyrazol-1-yl)-3-ethylsulfonyl-2-pyridyl]-1-(2,2,3,3,3-pentafluoropropyl) pyrazolo[3,4-c]pyridine]
≥ 80%: percent effect (mortality or growth inhibition) at 200 ppm [1] | percent effect (mortality or growth inhibition) at 200 ppm [2] | percent effect (mortality or growth inhibition) at 200 ppm [3] | mortality at 200 ppm [4] | percent control (mortality, anti-feedant effect or growth inhibition) at 200 ppm [5]

CCS(=O)(=O)c1ccc(-n2cncn2)nc1-c1cc2cnn(CC(F)(F)C(F)(F)F)c2cn1 [Compound P22, 5-[3-ethylsulfonyl-6-(1,2,4-triazol-1-yl)-2-pyridyl]-1-(2,2,3,3,3-pentafluoropropyl) pyrazolo[3,4-c] pyridine]
≥ 80%: percent effect (mortality or growth inhibition) at 200 ppm [1] | percent effect (mortality or growth inhibition) at 200 ppm [2] | percent effect (mortality or growth inhibition) at 200 ppm [3] | mortality at 200 ppm [4] | percent control (mortality, anti-feedant effect or growth inhibition) at 200 ppm [5]

CCS(=O)(=O)c1ccc(N(C)C(=O)NC)nc1-c1cc2cnn(CC(F)(F)C(F)(F)F)c2cn1 [Compound P33, 1-[5-ethylsulfonyl-6-[1-(2,2,3,3,3-pentafluoropropyl)pyrazolo[3,4-c]pyridin-5-yl]-2-pyridyl]-1,3-dimethyl-urea]
≥ 80%: percent effect (mortality or growth inhibition) at 200 ppm [1] | percent effect (mortality or growth inhibition) at 200 ppm [2] | percent effect (mortality or growth inhibition) at 200 ppm [3] | mortality at 200 ppm [4] | percent control (mortality, anti-feedant effect or growth inhibition) at 200 ppm [5]

CC[S+]([O-])c1cccnc1-c1cc2ccn(CC(F)(F)C(F)(F)F)c2cn1 (stereo not drawn) [Compound P7, 5-(3-ethylsulfinyl-2-pyridyl)-1-(2,2,3,3,3-pentafluoropropyl) pyrrolo[2,3-c]pyridine]
≥ 80%: percent effect (mortality or growth inhibition) at 200 ppm [1] | mortality at 200 ppm [4]

CCS(=O)(=O)c1cc(C2(C#N)CC2)cnc1-c1cc2ccn(CC(F)(F)C(F)(F)F)c2cn1 [Compound P23, 1-[5-ethylsulfonyl-6-[1-(2,2,3,3,3-pentafluoropropyl)pyrrolo[2,3-c]pyridin-5-yl]-3-pyridyl] cyclopropane-carbonitrile]
≥ 80%: percent effect (mortality or growth inhibition) at 200 ppm [1] | percent effect (mortality or growth inhibition) at 200 ppm [2] | percent effect (mortality or growth inhibition) at 200 ppm [3] | mortality at 200 ppm [4] | percent control (mortality, anti-feedant effect or growth inhibition) at 200 ppm [5]

CCS(=O)(=O)c1cccnc1-c1cc2ccn(CC(F)(F)C(F)(F)F)c2cn1 [Compound P8, 5-(3-ethylsulfonyl-2-pyridyl)-1-(2,2,3,3,3-pentafluoropropyl) pyrrolo[2,3-c]pyridine]
≥ 80%: percent effect (mortality or growth inhibition) at 200 ppm [1] | percent effect (mortality or growth inhibition) at 200 ppm [2] | percent effect (mortality or growth inhibition) at 200 ppm [3] | mortality at 200 ppm [4] | percent control (mortality, anti-feedant effect or growth inhibition) at 200 ppm [5]

CCS(=O)(=O)c1ccc(NC)nc1-c1cc2cnn(CC(F)(F)C(F)(F)F)c2cn1 [Compound P14, 5-ethylsulfonyl-N-methyl-6-[1-(2,2,3,3,3-pentafluoropropyl)pyrazolo[3,4-c]pyridin-5-yl]pyridin-2-amine]
≥ 80%: percent effect (mortality or growth inhibition) at 200 ppm [1] | percent effect (mortality or growth inhibition) at 200 ppm [2] | percent effect (mortality or growth inhibition) at 200 ppm [3] | mortality at 200 ppm [4] | percent control (mortality, anti-feedant effect or growth inhibition) at 200 ppm [5]

CCS(=O)(=O)c1cc(Oc2ccccn2)cnc1-c1cc2cnn(CC(F)(F)C(F)(F)F)c2cn1 [Compound P21]
≥ 80%: percent effect (mortality or growth inhibition) at 200 ppm [1] | percent effect (mortality or growth inhibition) at 200 ppm [2] | percent effect (mortality or growth inhibition) at 200 ppm [3] | mortality at 200 ppm [4] | percent control (mortality, anti-feedant effect or growth inhibition) at 200 ppm [5]

CCS(=O)(=O)c1ccc(N2CCOC2=O)nc1-c1cc2cnn(CC(F)(F)C(F)(F)F)c2cn1 [Compound P27, 3-[5-ethylsulfonyl-6-[1-(2,2,3,3,3-pentafluoropropyl)pyrazolo[3,4-c]pyridin-5-yl]-2-pyridyl]oxazolidin-2-one]
≥ 80%: percent effect (mortality or growth inhibition) at 200 ppm [3] | mortality at 200 ppm [4] | percent control (mortality, anti-feedant effect or growth inhibition) at 200 ppm [5]

CCS(=O)(=O)c1ccc(NC)nc1-c1cc2ccn(CC(F)(F)C(F)(F)F)c2cn1 [Compound P24, 5-ethylsulfonyl-N-methyl-6-[1-(2,2,3,3,3-pentafluoropropyl)pyrrolo[2,3-c]pyridin-5-yl]pyridin-2-amine]
≥ 80%: percent effect (mortality or growth inhibition) at 200 ppm [1] | percent effect (mortality or growth inhibition) at 200 ppm [2] | percent effect (mortality or growth inhibition) at 200 ppm [3] | mortality at 200 ppm [4] | percent control (mortality, anti-feedant effect or growth inhibition) at 200 ppm [5]

CCS(=O)(=O)c1cc(Oc2ccccn2)cnc1-c1cc2ccn(CC(F)(F)C(F)(F)F)c2cn1 [Compound P17, 5-[3-ethylsulfonyl-5-(2-pyridyloxy)-2-pyridyl]-1-(2,2,3,3,3-pentafluoropropyl) pyrrolo[2,3-c]pyridine]
≥ 80%: percent effect (mortality or growth inhibition) at 200 ppm [1] | percent effect (mortality or growth inhibition) at 200 ppm [2] | percent effect (mortality or growth inhibition) at 200 ppm [3] | mortality at 200 ppm [4] | percent control (mortality, anti-feedant effect or growth inhibition) at 200 ppm [5]

CCS(=O)(=O)c1cc(C2CC2)cnc1-c1cc2cnn(CC(F)(F)C(F)(F)F)c2cn1 [Compound P28, 5-(5-cyclopropyl-3-ethylsulfonyl-2-pyridyl)-1-(2,2,3,3,3-pentafluoropropyl) pyrazolo[3,4-c] pyridine]
≥ 80%: percent effect (mortality or growth inhibition) at 200 ppm [1] | percent effect (mortality or growth inhibition) at 200 ppm [2] | percent effect (mortality or growth inhibition) at 200 ppm [3] | percent control (mortality, anti-feedant effect or growth inhibition) at 200 ppm [5]

CCS(=O)(=O)c1ccc(-n2cncn2)nc1-c1cc2ncn(CC(F)(F)C(F)(F)F)c2cn1 [Compound P32, 6-[3-ethylsulfonyl-6-(1,2,4-triazol-1-yl)-2-pyridyl]-3-(2,2,3,3,3-pentafluoropropyl)imidazo[4,5-c]pyridine]
≥ 80%: percent effect (mortality or growth inhibition) at 200 ppm [1] | percent effect (mortality or growth inhibition) at 200 ppm [2] | percent effect (mortality or growth inhibition) at 200 ppm [3] | mortality at 200 ppm [4]
